The subject of assay [1] is LXR. Description: ABCA1 (LXR target gene) expression by Q-RT-PCR in M2-10B4 bone marrow stromal cells. As to conditions: for fold induction at 2 µM: M210B4, 48 h, read-out: ABCA1 gene expression, Fold Induction ± SD; for LXR signaling activation: bone marrow stromal cells.
Description: This was measured by the ability of these molecules to induce the expression of LXR-target genes, including ABCA1, in M2-10B4 bone marrow stromal cells (MSC) after 48 hours of treatment (Table 1).
The test system of assay [2] is U2OS human osteosarcoma cells. The assay is described as follows: Anchorage-independent clonogenic growth of U2OS cells. In kind it is cell-based. As to conditions: 1 μM, 72 hours, colonies after 10 days (FIG. 4). The method, then: (§1) Next, cells were harvested and examined for clonogenic growth in non-adherent plates after 10 days of culturing. Data from a representative of two separate experiments are reported as the relative number of colonies formed by cells treated with LXR ligands relative to cells treated with control vehicle (% of control).
(§2) We examined whether LXR activation inhibits the clonogenic growth of human osteosarcoma cells using an anchorage-independent cell growth assay. Saos-2 and U2OS cells were seeded in standard tissue culture plates and treated for 72 hours with control vehicle or 1 μM of TO, 22R, or Oxy16. Following treatments with LXR ligands, the drugs were removed and the cells harvested and plated in methylcellulose media in non-adherent plates (Costar) and the cell colonies formed after 10 days were counted.

For assay [3], the system named is LXR. Description: LXR target gene expression by Q-RT-PCR in Saos-2 osteosarcoma cells. In kind it is cell-based, human. As to conditions: Saos-2 cells (FIG. 2, 72 hours for TO). From the text:
Data from a representative experiment are reported as the Data from a representative experiment are reported as the mean of triplicate determinations±SD relative to the expression level of LXRα (p<0.001 for control vs. both concentrations of TO for ABCA1 and SREBP1c mRNA).
Culturing the cells in varying serum (FBS) concentrations from 1% to 10% had no effect on LXRs or LXR target gene expression levels at baseline.

The subject of another assay is REH human ALL cells. Description: Clonogenic growth of REH ALL cells. The assay is classed as cell-based. The method, then:
(§3) Following treatment cells were harvested by washing cells twice with phosphate buffered saline (PBS) followed by enzymatically detaching with trypsin/EDTA. Cells were collected then washed twice with PBS. Cells were counted then resuspended in 500 uL of media. The volume of cells required for 2,000 cells from the control group was removed from each group then mixed with methylcellulose (1.2%) containing 30% fetal bovine serum, 1% bovine serum albumin, 10^-4 M 2-mercaptoethanol, and 2 mM L-glutamine. Cells were plated in low-attachment 6 well plates (1 ml/well), each group being plated in triplicate. Following 10 days of incubation, tumor cell colonies consisting of >40 cells were counted using an inverted microscope. Results are presented as the percentage of colonies from each treatment group compared to the control group (Table 2).
A similar experiment to that shown above for pancreatic cancer cells was performed using the human ALL cells, REH (Table 3).

The test system of assay [4] is L3.6p1 human pancreatic cancer cells. Description: Clonogenic growth of L3.6p1 pancreatic cancer cells in methylcellulose. In kind it is cell-based. As to conditions: 72 hours treatment, colonies counted after 10 days. How it is done:
as §3

In another assay the test system is Hedgehog signaling. Description: CAPAN-1 conditioned-medium-induced Hh target gene expression (Ptch1, HHIP, Gli1) in C3H10T1/2 cells. As to conditions: C3H10T1/2 cells treated with CAPAN-1 CM. The assay is classed as cell-based. How it is done: Next, cells were treated with DMEM containing 5% […] or CAPAN-1 CM in the presence or absence of TO, Oxy16, or Cyc. After 48 hours, RNA was extracted and analyzed by Q-RT-PCR for the expression of Hh target genes Ptch1, HHIP, and Gli1 and normalized to GAPDH expression.
As noted above, Hh signaling appears to play an important role in the initiation and progression of pancreatic cancer (26), and the inhibition of HE signaling using small molecule antagonists inhibits pancreatic cancer cells from growing in vitro and in vivo (50). […] Subsequently, Hh signaling in stromal cells provides a permissive milieu for tumor cells to grow. […] In this Example, we examine this possibility using an in vitro model system in which Hh signaling is induced in C3H10T1/2 embryonic fibroblasts by conditioned-medium (CM) from CAPAN-1 human pancreatic cancer cells.
In order to assess the functional activity of Hh proteins produced by CAPAN-1 cells, we examined the ability of CM to induce Hh target gene expression in C3H10T1/2 embryonic fibroblasts.

Assay [5] concerns Saos-2 human osteosarcoma cells. The assay is described as follows: Anchorage-independent clonogenic growth of Saos-2 cells. In kind it is cell-based. As to conditions: Saos-2; 1 μM, 72 hours, colonies after 10 days (FIG. 4). How it is done: as §1, §2
The subject of assay [6] is LXR. Description: LXR target gene expression in human pancreatic cancer cells.
Assay [7] has as its system human pancreatic cancer cells. Description: Clonogenic growth of human pancreatic cancer cells in vitro. The assay is classed as cell-based.
Assay [8] has as its system human NCI-H929 multiple myeloma cell line. Description: Clonogenic growth of NCI-H929 multiple myeloma cells. The assay is classed as cell-based. As to conditions: 1 μM, 96 hours, colonies after 10 days (FIG. 6). How it is done: NCI-11929 multiple myeloma cells were treated for 96 hours with control vehicle or 1 μM of each compound as shown. Next, drugs were removed and cells were plated in methylcellulose. Clonogenic growth of colonies determined after 10 days. Data are reported as percentage of colony number normalized to control group.
In order to examine the effect of LXR activation on the clonogenic growth of multiple myeloma cells, the human NCI-H929 multiple myeloma cell line was used.

In assay [9] the test system is human primary multiple myeloma cells derived from patients. Description: Clonogenic growth of primary multiple myeloma cells from patients in methylcellulose. In kind it is cell-based. As to conditions: 1 μM, 96 hours, CD34+ and CD138+ depleted bone marrow mononuclear cells.
The test system of assay [10] is NCI-H929 multiple myeloma cancer stem cells. Description: Percentage of cancer stem cells (CD138 negative, ALDH positive) in NCI-H929 cultures by flow cytometry. As to conditions: 1 μM, 96 hours (FIGS. 7, 8). In kind it is cell-based, human. How it is done:
NCI-H929 multiple myeloma cells were treated for 96 hours with control vehicle or 1 μM of each compound as shown. Next, percentage of CD138negative cells in the same number of starting cells from each group was determined by flow cytometry.
NCI-H929 multiple myeloma cells were treated for 96 hours with control vehicle or 1 μM of each compound as shown. Next, percentage of ALDH+ cells in the same number of starting cells from each group was determined by flow cytometry.
On the technique in general: Flow cytometry measures light scatter and fluorescence of single cells or particles in a stream.

Structures are written as SMILES.

Consider `C[C@]12CC[C@H]3[C@@H](CC=C4C[C@@H](O)CC[C@@]43C)[C@@H]1CC[C@@H]2[C@@](C)(O)CCCc1ccccc1` [Oxy22], for which, in the assay on LXR [1], the fold induction at 2 µM came to 2.2 ± 0.4 and the LXR signaling activation result is “Activate LXR Signaling”.

In the case of `CC(C)CC[C@@H](O)[C@@H](C)[C@H]1CC[C@H]2[C@@H]3CC=C4C[C@@H](O)CC[C@]4(C)[C@H]3CC[C@]12C` [Oxy 22R, 22R-hydroxycholesterol, reference compound], the clonogenic growth result in assay [2] is on record as “significant inhibition”; in [5], “significant inhibition”; in [7], “significantly inhibit”. Further, the “expression of LXR target genes ABCA1 and SREBP1c” value in the assay on LXR [3] is listed as “significant expression”. Also, the “Normalized Colony # (% of control)” value is reported as 36 % of control with REH human ALL cells (0.1 μM), 2 % of control with REH human ALL cells (0.5 μM), 63 % of control in assay [4] (5 μM) and 59 % of control in [4] (10 μM). Further, the “Raw Colony #” value with REH human ALL cells (0.1 μM) is listed as 33; with REH human ALL cells (0.5 μM) it was 2; in assay [4] (5 μM) it was 153; in assay [4] (10 μM), 142. Moreover, the “CM-induced Hh signaling” value in the assay with Hedgehog signaling is “inhibited”. For the same compound, the “expression of LXR target genes” value in the assay with LXR [6] was “induce the expression of LXR target genes”.

`CC(C)CC[C@H](O)[C@@H](C)[C@H]1CC[C@H]2[C@@H]3CC=C4C[C@@H](O)CC[C@]4(C)[C@H]3CC[C@]12C` [22(S)-hydroxycholesterol]: the “CM-induced Hh signaling” value in the assay on Hedgehog signaling is listed as “did not have similar inhibitory effects”.

For the compound `CC(C)CCC[C@](C)(O)C1CCC2C3CC=C4CC(=O)CC[C@]4(C)C3CC[C@@]21C` (stereo partly drawn) [Oxy30, (10R,13S)-17-((S)-2-Hydroxy-6-methylheptan-2-yl)-10,13-dimethyl-4,7,8,9,10,11,12, 13,14,15,16,17-dodecahydro-1H-cyclopenta[a]phenanthren-3(2H)-one], in assay [4] (5 μM), the “Normalized Colony # (% of control)” value is 39 % of control and the “Raw Colony #” value came to 96. Besides, in [4] (10 μM), the “Normalized Colony # (% of control)” value is listed as 41 % of control and the “Raw Colony #” value is on record as 100. Moreover, in the assay on LXR [1], the fold induction at 2 µM amounted to 2.8 ± 0.8 and the LXR signaling activation entry was “Activate LXR Signaling”.

With `C[C@]12CC[C@H]3[C@@H](CC=C4C[C@@H](O)CC[C@@]43C)[C@@H]1CC[C@@H]2[C@@](C)(O)CCc1cccnc1` [Oxy43, (3S,8S,9S,10R,13S,14S,17S)-17-((S)-2-Hydroxy-4-(yridine-3-yl)butan-2-yl)-10,13-dimethyl-2,3,4,7,8,940,11,12,13,14,15,16,17-tetradecahydro-1H-cyclopenta-[a]-phenanthren-3-ol], in the assay with LXR [1], the fold induction at 2 µM worked out at 2.5 ± 0.8 and the LXR signaling activation entry is listed as “Activate LXR Signaling”.

Turning to `CC(C)CCC[C@](C)(O)C1CCC2C3CC=C4C=CCC[C@]4(C)C3CC[C@@]21C` (stereo partly drawn) [Oxy37, (2S)-2-((10R,13S)-10,13-Dimethyl-2,7,8,9,10,11,12,13,14,15,16,17-dodecahydro-1H-cyclopenta[a]phenanthren-17-yl)-6-methylheptan-2-ol], in the assay on LXR [1], the fold induction at 2 µM was 2 ± 0.1 and the LXR signaling activation entry was “Activate LXR Signaling”.

For `CC(C)CCC[C@](C)(O)C1CCC2C3CC=C4C[C@H](O)CC[C@]4(C)C3CC[C@@]21C` (stereo partly drawn) [Oxy35, (3R,10R,13S)-17-((S)-2-Hydroxy-6-methylheptan-2-yl)-10,13-dimethyl-2,3,4,7,8,9, 10,11,12,13,14,15,16,17-tetradecahydro-1H-cyclopenta[a]phenanthren-3-ol], in the assay with LXR [1], the fold induction at 2 µM turned out to be 4 ± 1.2 and the LXR signaling activation result is “Activate LXR Signaling”.

`CC(C)CCC[C@](C)(O)[C@H]1CC[C@H]2[C@@H]3CC=C4C[C@@H](O)CC[C@]4(C)[C@H]3CC[C@@]21C` [Oxy 20S, 20(S)-hydroxycholesterol, reference compound]: the “expression of LXR target genes ABCA1 and SREBP1c” value with LXR [3] is recorded as “significant expression”.

`C[C@]12CC[C@H]3[C@@H](CC=C4C[C@@H](O)CC[C@@]43C)[C@@H]1CC[C@@H]2[C@@](C)(O)CCc1ccc(Cl)cc1` [Oxy47, (3S,8S,9S,10R,13S,14S,17S)-17-((S)-4-(4-Chlorophenyl)-2-hydroxybutan-2-yl)-10,13-dimethyl-2,3,4,7,8,9,10,11,12,13,14,15,16,17-tetradecahydro-1H-cyclopenta-[a]-phenanthren-3-ol]: in the assay on LXR [1], the fold induction at 2 µM was found to be 1.8 ± 0.5 and the LXR signaling activation entry is “Activate LXR Signaling”.

For the compound `CC(C)CCC[C@](C)(O)C1CCC2C3CCC4=CC(=O)CC[C@]4(C)C3CC[C@@]21C` (stereo partly drawn) [Oxy31, (10R,13S)-17-((S)-2-Hydroxy-6-methylheptan-2-yl)-10,13-dimethyl-6,7,8,9,10,11,12, 13,14,15,16,17-dodecahydro-1H-cyclopenta[a]phenanthren-3(2H)-one], in the assay with LXR [1], the fold induction at 2 µM came to 2 ± 0.3 and the LXR signaling activation result is on record as “Activate LXR Signaling”.

As to `C[C@]12CC[C@H]3[C@@H](CC=C4C[C@@H](O)CC[C@@]43C)[C@@H]1CC[C@@H]2[C@@](C)(O)CCc1ccc(F)cc1` [Oxy45, (3S,8S,9S,10R,13S,14S,17S)-17-((S)-4-(4-Fluorophenyl)-2-hydroxybutan-2-yl)-10,13-dimethyl-2,3,4,7,8,9,10,11,12,13,14,15,16,17-tetradecahydro-1H-cyclopenta-M-phenanthren-3-ol], the clonogenic growth result in assay [8] was “inhibited clonogenic growth”. Moreover, in assay [9] (Specimen # 1), the “colony formation (% of control)” value is 46 % of control. For the same compound, in assay [9] (Specimen # 2), the “colony formation (% of control)” value is 25 % of control. Further, in the assay with REH human ALL cells (0.1 μM), the “Normalized Colony # (% of control)” value is on record as 43 % of control and the “Raw Colony #” value is 40. In addition, in the assay with REH human ALL cells (0.5 μM), the “Normalized Colony # (% of control)” value is listed as 0.5 % of control and the “Raw Colony #” value is on record as 0.5. In the assay with LXR [1], the fold induction at 2 µM is 3.5 ± 0.5 and the LXR signaling activation result was “Activate LXR Signaling”. The “percentage of cancer stem cells (CD138 negative and ALDH positive cells)” value in [10] is reported as “significantly reduced”.

Source of the values: US20160206631A1, “OXYSTEROLS THAT ACTIVATE LIVER X RECEPTOR SIGNALING AND INHIBIT HEDGEHOG SIGNALING” (THE REGENTS OF THE UNIVERSITY OF CALIFORNIA, priority 2010, published 2016).
